Like-named read-outs stand apart in the source and are kept apart here.
Key:
[1] = test system: carrageenan induced edema in mouse foot pads; assay: Anti-inflammatory screen (carrageenan induced foot edema); format: in vivo, mice; conditions: mice
Protocol: CF1 male mice (about 30 g) were administered test drugs at 10 mg/kg in 0.05% polysorbate .80-water intraperitoneally 3 hr and 30 min prior to 0.05 ml of 2% carrageenan in 0.9% saline injected into the plantar surface of the right hind foot. Saline injected into the left hind foot served as a base line. After 3 hr, both feet were excised at the tibiotarsal (ankle) joint according to the modified (Roszkowski et al., J. Pharm. Exp. Ther., 179, 114 1971) method of Winter, resulting in an 87 mg net increase in the weight of the control animals' feet.

CF1 male mice = assay: Writhing reflex (acetic acid); format: in vivo; conditions: for Writhing Reflex: mice
Protocol: CF1 male mice were administered test drugs at 20 mg/kg intraperitoneally 20 min (see Hendershat et al., J. Pharmacol Exp. Ther. 125, 237 1959) prior to the administration of 0.5 ml of 0.6% acetic acid (Vingar et al., European J. PHarmacol, 37, 23 1976). After 5 min the number of stretches, characterized by repeated contractures of the abdominal musculature accompanied by extension of the hind limbs, was counted for the next 10 min. The control mice had 78 stretch reflexes per 10 min.

Acid phosphatase [2] = assay: Lysosomal free acid phosphatase activity, liver homogenate; format: biochemical, rats; conditions: 5 μmoles, in vitro; 20 min
Protocol: (§1) Lysosomal enzymatic assays - Sprague Dawley rats (about 160 g) were sacrificed, the liver excised, and a 10% homogenate (4x) in 0.25 M sucrose and 0.001 M (ethylenedinitrilo) tetra acetic acid, ph 7.2 was prepared.
(§2) Acid phosphatase activity (Gianetto et al., Biochem J., 59, 433 1955) was carried out by incubating with 0.1 Mβ-glycerol phosphate in 0.1 M acetate, pH 5.0 with 5 μmoles of test drugs in 1% carboxymethylcellulose (CMC) for 20 min with liver homogenate and 60 min with resuspended PMNs. Lysosome enzymes were released by 0.02% alkyl phenoxy polyethoxy ethanol-100 to obtain the total enzymatic activity. The reaction was stopped with 10% trichloroacetic acid and the solution centrifuged. Aliquots of the supernatant were assayed for inorganic phophate content by the method of Chen et al., Anal Chem., 28, 1756 (1956). Percent free acid phosphatase was calculated. Cathepsin activity was determined in an analagous manner except the substrate used was 2% azocasein (Schleuning et al., Methods in Enzymology, XLV, 330 1976) in 0.1 M acetate buffer pH 5.0. The supernatant was assayed for acid soluble peptide fragments at 366 nm. Percent free cathepsin activity was calculated.

Cathepsin [3] = assay: Lysosomal free cathepsin activity, liver homogenate; format: biochemical, rats; conditions: 5 μmoles; for Liver % Free Cathepsin Activity, pH5: in vitro, 20 min
Protocol: as §1, §2

Acid phosphatase [4] = assay: Lysosomal free acid phosphatase activity, PMNs; format: cell-based; conditions: 5 μmoles; for PMNs % Free Acid Phosphatase Activity, pH5: in vitro, 60 min
Protocol: (§3) Polymorphonuclear neutrophils (PMNs) were collected from the peritoneal cavity four hr after the injection of 35 ml of 0.5% oyster glycogen in isotonic saline (Orange et al., J. Exp. Med., 127, 767 1968). The PMNs were centrifuged down at 800 g for 20 min, washed, and resuspended in minumen essential medium (MEM) with 10% fetal calf serum pH 7.4.
as §2

Cathepsin [5] = assay: Lysosomal free cathepsin activity, PMNs; format: cell-based; conditions: 5 μmoles; for PMNs % Free Cathespin Activity, pH5: in vitro, 60 min
Protocol: as §3, §2

cAMP levels in PMNs = assay: Cyclic-3',5'-adenosine monophosphate levels (cAMP) in PMNs; format: cell-based; conditions: 1 h
Protocol: as §3
Isolated PMNs were incubated with test drugs at 5μ moles for 1 hr at 37° C. in MEM at pH 7.4. The reaction was stopped with 6% trichloroacetic acid. The cyclic-3',5'-adenosine monophosphate levels were determined by the radioimmunoassay of Gilman, Proc. Natl. Acad. Sci. (USA), 67, 305 (1970), using 3H(G)-cyclic-3',5'-adenosine monophosphate (39.8 Cu/m mol). Results were calculated in p mole/10^7 PMNs cells.

[6] = molecular target: T1, prostaglandin synthetase from beef seminal vesicle (Bos taurus, UniProt O62664); assay: Prostaglandin synthetase activity; format: biochemical
T1 construct: purchased; host or cells: beef seminal vesicle
T1 sequence (O62664 25-600): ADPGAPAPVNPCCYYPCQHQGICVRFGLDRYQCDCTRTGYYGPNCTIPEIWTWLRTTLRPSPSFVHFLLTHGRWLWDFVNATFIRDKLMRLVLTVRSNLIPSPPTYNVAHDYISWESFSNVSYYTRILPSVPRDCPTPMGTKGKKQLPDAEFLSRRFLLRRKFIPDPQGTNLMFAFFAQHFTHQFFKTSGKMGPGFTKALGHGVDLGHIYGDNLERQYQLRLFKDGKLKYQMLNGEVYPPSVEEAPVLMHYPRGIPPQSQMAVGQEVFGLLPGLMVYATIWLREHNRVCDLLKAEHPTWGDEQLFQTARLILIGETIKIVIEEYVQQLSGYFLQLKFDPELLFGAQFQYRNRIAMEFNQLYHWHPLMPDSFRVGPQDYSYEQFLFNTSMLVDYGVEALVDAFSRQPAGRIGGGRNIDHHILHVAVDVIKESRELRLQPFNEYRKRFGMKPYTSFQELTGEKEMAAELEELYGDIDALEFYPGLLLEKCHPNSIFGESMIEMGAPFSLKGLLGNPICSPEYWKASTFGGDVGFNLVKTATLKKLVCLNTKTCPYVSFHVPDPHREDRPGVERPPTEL
Protocol: After 1 hr at 37° C. the reaction was stopped with 1 N HCl and extracted with ethyl ether and evaporated. […] The plates were dried and developed in iodine vapor and with the use of prostaglandin standards the appropriate areas were scraped and counted for ^3 H content. Indometacin was used as a standard at 10^-4 M concentration. Test drugs were used at 10^-6 M.

liver mitochondria [7] = assay: Oxidative phosphorylation, succinate as substrate; format: biochemical, rats; conditions: 5 μmoles; for Oxidative Phosphorylation Succinate State 3: ADP stimulated respiration; for Oxidative Phosphorylation Succinate State 4: basal respiration
Protocol: (§4) Basal and adenosine diphosphate stimulated respiration on 10% liver homogenates was measured using succinate or αketoglutarate as substrate. See Glatt, et al., supra. The reaction vessel contained sucrose 55μ moles, KCl 22μ moles, K2 HPO4 22μ moles, test compounds at 5μ moles in 1% CMC and sodium succinate 90μ moles or αketoglutarate 60μ moles in a total volume of 1.8 ml. […] The rate of respiration was calculated at μl of O2 consumed/hr/mg wet weight of liver.

liver mitochondria [8] = assay: Oxidative phosphorylation, α-ketoglutarate as substrate; format: biochemical, rats; conditions: 5 μmoles; for Oxidative Phosphorylation α Ketoglutarate State 3: ADP stimulated respiration; for Oxidative Phosphorylation α Ketoglutarate State 4: basal respiration
Protocol: as §4

[9] = Hydrolytic, air and moisture stability
Male Sprague Dawley rats = assay: Chronic adjuvant arthritic screen; format: in vivo; conditions: indomethacin tested at 10 mg/kg, rats
Protocol: Male Sprague Dawley rats (about 160 g) were injected at the base of the tail with 0.2 ml of solution of killed and dried Mycobacterium butyricum and digitonin in mineral oil (see Waksman et al., J. Immunol., 85, 403 1960). Test drugs were administered intraperitoneally commencing on day 3 through day 20 at 2.5 mg/kg/day. Animals were sacrificed on day 21, and the feet were excised and weighed.

Sprague Dawley rats = assay: Red and white blood cell counts after 3 weeks dosing; format: in vivo; conditions: dosing for three weeks intraperitoneally, rats
Description: Hematocrits were also obtained.

in vivo = conditions: mouse
[10] = 1 h, 10^-6 M, read-out: Prostaglandin Synthesis
[11] = indomethacin tested at 10 mg/kg
[12] = pH 7.4, read-out: PMNs cAMP Level

Structure (SMILES) | Liver % Free Acid Phosphatase Activity, pH5 (Acid phosphatase [2]) [% Control] | Liver % Free Cathepsin Activity, pH5 (Cathepsin [3]) [% Control] | inhibition of free acid phosphatase activity in PMNs (Acid phosphatase [4]) [%] | PMNs % Free Acid Phosphatase Activity, pH5 (Acid phosphatase [4]) [% Control] | PMNs % Free Cathespin Activity, pH5 (Cathepsin [5]) [% Control] | activity at 1 µM [6, 10] [%] | Oxidative Phosphorylation Succinate State 3 (liver mitochondria [7]) [% Control] | Oxidative Phosphorylation Succinate State 4 (liver mitochondria [7]) [% Control] | Oxidative Phosphorylation α Ketoglutarate State 3 (liver mitochondria [8]) [% Control] | Oxidative Phosphorylation α Ketoglutarate State 4 (liver mitochondria [8]) [% Control] | activity at 5 µmol (cAMP levels in PMNs; [12]) [%] | further results
C[N+](C)(C)[BH2-]C(=O)O [VIII, trimethylamine-carboxyborane] | 82 ± 5 | 56 ± 6 | 50 | 50 ± 3 | 14 ± 4 | 93 ± 3 | 63 ± 4 | 122 ± 14 | 70 ± 20 | 127 ± 22 |  | Anti-inflammatory Screen ([1]; 10 mg/kg × 2 intraperitoneally): 79 % Control; Writhing Reflex (CF1 male mice; 20 mg/kg intraperitoneally): 29 % Control; inhibition of the writhing reflex (CF1 male mice; text summary of Table II): 70%; inhibition of PMN cathepsin activity (Cathepsin [5]): at least 82%; activity at 5 µmol (cAMP levels in PMNs; pH 7.4, 5 μmoles, in vitro, read-out: PMNs cAMP Level): 99%; uncoupling with α-ketoglutarate as substrate (liver mitochondria [8]): uncoupling; stability to air and water/moisture [9]: stable in air and H2 O
COc1ccc2c(c1)c(CC(=O)O)c(C)n2C(=O)c1ccc(Cl)cc1 [Indomethacin, reference compound] | 86 ± 4 | 67 ± 6 |  | 100 ± 2 | 100 ± 1 |  |  |  |  |  | 80 | Anti-inflammatory Screen [1, 11]: 22 % Control; Writhing Reflex (CF1 male mice; [11]): 43 % Control; Anti-Arthritic Screen (Male Sprague Dawley rats): 27 % Control; inhibition at 100 µM ([6]; 10^-4 M, read-out: inhibition of prostaglandin synthesis): 36%; inhibition at 1 µM ([6]; 10^-6 M, read-out: inhibition of prostaglandin synthesis): 24%; activity at 100 µM ([6]; 1 h, 10^-4 M (indomethacin), read-out: Prostaglandin Synthesis): 64 ± 2%
C[N+]1([BH2-]C#N)CCOCC1 [XIV, O(CH2 CH2)2 N(CH3).BH2 CN] | 68 ± 7 | 13 ± 5 | 50 | 50 ± 3 | 37 ± 5 | 38 ± 3 | 36 ± 5 | 62 ± 10 | 51 ± 16 | 140 ± 47 | 165 | Anti-inflammatory Screen ([1]; 1/3 dose (of 10 mg/kg × 2)): 91 % Control; Writhing Reflex (CF1 male mice; 1/3 dose (of 20 mg/kg)): 78 % Control; alteration of the red blood or white blood cell count/cu mm (Sprague Dawley rats): no alteration; inhibition of free proteolytic cathepsin activity of liver (Cathepsin [3]): at least 75%; activation at 5 µmol (cAMP levels in PMNs; read-out: increase of cyclic adenosine monophosphate levels in PMNs): 65%; both states 3 and 4 respiration with succinate (liver mitochondria [7]): inhibited; LD50 (in vivo): 23 mg/kg
